{
  "source": "patent US20240324593A1",
  "about": "“OCTENIDINE COMPOSITIONS AND METHODS OF USE THEREOF” (Solventum Intellectual Properties Company, priority 2021, published 2024)",
  "key": {"[1]": {"test": "Homogeneity of the composition / precipitation of octenidine", "format": "physicochemical", "details": "aqueous composition of octenidine hydrochloride with enhancer", "procedure": "Water and the carnitine enhancer (i.e., carnitine inner salt, carnitine tartrate tartaric acid, carnitine fumarate, or acetyl carnitine) to a 20 mL glass vial mixed with magnetic stirring. Octenidine hydrochloride (10% solution in 50:50 weight percentage methanol:water) was further added in the amount described in the tables below. The pH was adjusted using 1N HCL or NaOH. Glycerol (3 g) and Natrosol 250 HHX […] were added to a flask and mixed with a DAC 400 FVZ SPEEDMIXER dual asymmetric centrifuge mixer (from Flacktek, Inc Landrum, S.C.) at 2500 rpm for 30 seconds. The glycerol and Natrosol 250 HHX (1.3 g) were combined with the enhancer solution in a 40 gms Flack Tec cup and mixed for an additional 30 seconds at 2500 rpm. The resulting solutions were homogenous. Refer to Examples 1-36 below (total weight percentages of octenidine hydrochloride and carnitine enhancer within composition are provided in tables; glycerol about 8-9 wt %; Natrosol 250 HHX about 2-3 wt %; and water makes up the difference). The solutions of Examples 1-27 below were subjected to antimicrobial testing according to the method below.\nAs described above, aqueous compositions including only octenidine hydrochloride and a respective enhancer were also prepared (i.e., absent glycerol and Natrosol 250 HHX), similar to the formulations described in Tables 1-5. All compositions formed homogenous solutions. […]"}, "[2]": {"test": "Antimicrobial Efficiency Test, other antimicrobials with carnitine enhancers (Table 5)", "format": "cell-based", "details": "with versus without carnitine enhancer", "procedure": "Solutions of water, carnitine enhancer, and various other antimicrobials (i.e., chlorhexidine gluconate, benzalkonium chloride, polyhexamethylene biguanide) were prepared according to the procedure described immediately above.\nEx vivo porcine mucosa is transported to laboratory on ice pack and then trimmed and transferred in to RPMI 1640+2% PS media. A 5 mm biopsy punch is used to cut samples for assay. Remove most of the remaining muscle tissue with a fresh scalpel blade. Rinse 3× with 10±0.5 ml RPMI no ABX, no FCS. Transfer to incubator. Set up a 6 well plate with 1.5±0.2 mL RPMI (no ABX, no FCS) in each well and a 0.4 μm transwell insert. Transfer tissue explants mucosal side up to the insert (3 explants/well).\nPassage overnight culture 1:10 into THB and return to shaking incubator for 2-3 hours. Remove 1 mL of passage culture from test tube and place in sterile microcentrifuge tube. Centrifuge (1±0.5 min at max speed) to pellet. Wash pellet with 1±0.1 mL RPMI, no ABX, no FCS. Centrifuge to pellet and re-suspend in 1±0.1 mL fresh RPMI. Check OD 600 to determine bacterial density and dilute as necessary to achieve ˜1E8 CFU/ml. Add bacteria: 2±1 μl per explant and return to incubator to infect 4±0.15 h.\nApply 50± μl of formulation per explant (mucosa side). Incubate at 37±2° C. for 24±0.5 h.\nRemove tissue from transwells and place in appropriate neutralizer. Sonicate samples and vortex (30±5 second vortex, 2±0.1 minutes sonicate, and then 30±5 second vortex). Plate on Mannitol Salt Agar selective agar or Blood Agar at appropriate dilution and store dilutions at 4±2° C. The following day count plates and if TNTC, re-plate at higher dilution."}, "[3]": {"details": "background statement; cited from earlier work"}, "[4]": {"details": "background statement; cited from earlier work", "remark": "listed apart in the source"}, "[5]": {"details": "background statement; cited from earlier work", "remark": "listed apart in the source"}, "[6]": {"details": "background statement; cited from earlier work", "remark": "listed apart in the source"}},
  "note": "Where a name gives a salt, the structure may show the parent alone.",
  "data": [
    {"compound": "C[N+](C)(C)C[C@H](O)CC(=O)[O-].O=C(O)/C=C/C(=O)O", "note": "[carnitine fumarate, L-Carnitine fumarate]", "values": [
      {"measurement": "homogenous solution or precipitation of octenidine", "setting": "[1]", "result": "resulted in the precipitation of octenidine"}
    ]},
    {"compound": "polyhexamethylene biguanide [polyhexamethylene biguanidine]", "values": [
      {"measurement": "antimicrobial activity in the presence of carnitine enhancers (in words)", "setting": "[2]", "result": "performed better in the absence of carnitine enhancer"}
    ]},
    {"compound": "N=C(NCCCCCCNC(=N)NC(=N)Nc1ccc(Cl)cc1)NC(=N)Nc1ccc(Cl)cc1.O=C(O)[C@H](O)[C@@H](O)[C@H](O)[C@H](O)CO.O=C(O)[C@H](O)[C@@H](O)[C@H](O)[C@H](O)CO", "note": "[chlorhexidine gluconate]", "values": [
      {"measurement": "antimicrobial activity in the presence of carnitine enhancers (in words)", "setting": "[2]", "result": "performed better in the absence of carnitine enhancer"}
    ]},
    {"compound": "benzalkonium chloride", "values": [
      {"measurement": "antimicrobial activity in the presence of carnitine enhancers (in words)", "setting": "[2]", "result": "No effect"}
    ]},
    {"compound": "CCCCCCCCN=c1ccn(CCCCCCCCCCn2ccc(=NCCCCCCCC)cc2)cc1", "note": "[octenidine, octenidine hydrochloride]", "values": [
      {"measurement": "absorption through skin or mucous membranes", "setting": "[3]", "result": "not absorbed"},
      {"measurement": "antimicrobial efficacy relative to chlorhexidine", "setting": "[4]", "result": "3-10 times"},
      {"measurement": "cytotoxicity relative to chlorhexidine", "setting": "[5]", "result": "less cytotoxic than chlorhexidine"},
      {"measurement": "contact dermatitis", "setting": "[6]", "result": "does not cause contact dermatitis"}
    ]}
  ]
}
